Key:
[1] = target: purified recombinant human GAC (GLS1) (Homo sapiens (Human), UniProt O94925); test: GLS1 Enzymatic Activity Assay (dual-coupled enzymatic assay, resorufin/Amplex UltraRed readout); assay type: biochemical;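 further: glutamate from GAC coupled via glutamate oxidase and peroxidase to resorufin, read as fluorescence (ex 530, em 590 nm) kinetically or at 20 min, four-parameter logistic IC50 fit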
A549 cells = test: Proliferation Assay (A549 viability, Cell Titer Fluor, 72 hours); assay type: cell-based; settings: Homo sapiens, A549, 72 h
Method in brief: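 A549 cells seeded at 1000 cells/well, rested 24 h, then exposed to compound in 0.5% DMSO for 72 h at 37 °C. Viability read by Cell Titer Fluor fluorescence; IC50 from four-parameter logistic fit.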

Sequence of purified recombinant human GAC (GLS1) (O94925 other isoform, or with tags, fused parts or gaps): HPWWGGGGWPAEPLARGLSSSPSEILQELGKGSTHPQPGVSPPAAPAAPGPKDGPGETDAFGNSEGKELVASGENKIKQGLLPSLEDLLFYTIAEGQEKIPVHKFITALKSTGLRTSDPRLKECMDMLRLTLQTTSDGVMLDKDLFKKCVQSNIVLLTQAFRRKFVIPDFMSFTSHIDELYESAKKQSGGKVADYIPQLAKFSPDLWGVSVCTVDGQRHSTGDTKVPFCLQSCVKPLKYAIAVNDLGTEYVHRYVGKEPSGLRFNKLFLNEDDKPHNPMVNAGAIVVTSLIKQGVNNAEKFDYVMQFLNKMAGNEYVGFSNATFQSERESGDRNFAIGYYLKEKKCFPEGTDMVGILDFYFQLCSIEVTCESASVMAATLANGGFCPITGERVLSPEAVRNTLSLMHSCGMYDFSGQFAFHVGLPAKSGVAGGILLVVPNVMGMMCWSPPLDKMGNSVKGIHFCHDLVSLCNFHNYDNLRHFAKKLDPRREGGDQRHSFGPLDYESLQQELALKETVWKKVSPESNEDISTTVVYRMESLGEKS

IC50 [1] [nM]	EC50 (A549 cells) [nM]	SMILES
500 to 5000	> 5000	O=C(NCc1cccc(OC(F)(F)F)c1)c1cn(CCCCc2nnc(C(=O)NCCN3CCCC3)s2)nn1 [Example 49, N-[2-(pyrrolidin-1-yl)ethyl]-5-{4-[4-({[3-(trifluoromethoxy)phenyl]methyl}carbamoyl)-1H-1,2,3-triazol-1-yl]butyl}-1,3,4-thiadiazole-2-carboxamide]
100 to 500	500 to 5000	O=C(NCc1cccc(OC(F)(F)F)c1)c1cn(CCCCc2nnc(C(=O)NCC3COC3)s2)nn1 [Example 50, N-(oxetan-3-ylmethyl)-5-{4-[4-({[3-(trifluoromethoxy)phenyl]methyl}carbamoyl)-1H-1,2,3-triazol-1-yl]butyl}-1,3,4-thiadiazole-2-carboxamide]
100 to 500	500 to 5000	O=C(NCc1cccc(OC(F)(F)F)c1)c1cn(CCCCc2nnc(C(=O)NC3COC3)s2)nn1 [Example 51, N-(oxetan-3-yl)-5-{4-[4-({[3-(trifluoromethoxy)phenyl]methyl}carbamoyl)-1H-1,2,3-triazol-1-yl]butyl}-1,3,4-thiadiazole-2-carboxamide]
500 to 5000	> 5000	COCCNC(=O)c1nnc(CCCCn2cc(C(=O)NCc3ccccc3)nn2)s1 [Example 52, 5-{4-[4-(benzylcarbamoyl)-1H-1,2,3-triazol-1-yl]butyl}-N-(2-methoxyethyl)-1,3,4-thiadiazole-2-carboxamide]
100 to 500	100 to 500	CCOC(=O)NCc1cn(CCCCn2cc(C(=O)NCc3cccc(OC(F)(F)F)c3)nn2)nn1 [Example 54, ethyl N-[(1-{4-[4-({[3-(trifluoromethoxy)phenyl]methyl}carbamoyl)-1H-1,2,3-triazol-1-yl]butyl}-1H-1,2,3-triazol-4-yl)methyl] carbamate]
100 to 500	500 to 5000	CC(C)CC(=O)NCc1cn(CCCCn2cc(C(=O)NCc3cccc(OC(F)(F)F)c3)nn2)nn1 [Example 55, l-(4-{4-[(3-methylbutanamido)methyl]-1H-1,2,3-triazol-1-yl}butyl)-N-{[3-(trifluoromethoxy)phenyl]methyl}-1H-1,2,3-triazole-4-carboxamide]
< 100	< 100	CC(C)COC(=O)NCc1cn(CCCCn2cc(C(=O)NCc3cccc(OC(F)(F)F)c3)nn2)nn1 [Example 56, 2-methylpropyl N-[(1-{4-[4-({[3-(trifluoromethoxy)phenyl]methyl}carbamoyl)-1H-1,2,3-triazol-1-yl]butyl}-1H-1,2,3-triazol-4-yl)methyl]carbamate]
100 to 500	500 to 5000	O=C(NCc1cccc(OC(F)(F)F)c1)c1cn(CCCCc2nnc(C(=O)NCC3CC3)s2)nn1 [Example 59, N-(cyclopropylmethyl)-5-{4-[4-({[3-(trifluoromethoxy)phenyl]methyl}carbamoyl)-1H-1,2,3-triazol-1-yl]butyl}-1,3,4-thiadiazole-2-carboxamide]
< 100	< 100	Cc1ccc(CNC(=O)c2nnc(CCCCn3cc(C(=O)NCc4cccc(OC(F)(F)F)c4)nn3)s2)cn1 [Example 60, N-[(6-methylpyridin-3-yl)methyl]-5-{4-[4-({[3-(trifluoromethoxy)phenyl]methyl}carbamoyl)-1H-1,2,3-triazol-1-yl]butyl}-1,3,4-thiadiazole-2-carboxamide]
< 100	< 100	Cc1ccc(CNC(=O)c2cn(CCCCc3nnc(C(=O)NCc4cccc(OC(F)(F)F)c4)s3)nn2)cn1 [Example 61]
100 to 500	500 to 5000	Cc1ccc(CNC(=O)c2cn(CCCCc3nnc(C(=O)NCc4ccccn4)s3)nn2)cn1 [Example 62, 5-[4-(4-{[(6-methylpyridin-3-yl)methyl]carbamoyl}-1H-1,2,3-triazol-1-yl)butyl]-N-(pyridin-2-ylmethyl)-1,3,4-thiadiazole-2-carboxamide]
100 to 500	500 to 5000	Cc1ccc(CNC(=O)c2cn(CCCCc3nnc(C(=O)NCC4CC4)s3)nn2)cn1 [Example 63, N-(cyclopropylmethyl)-5-[4-(4-{[(6-methylpyridin-3-yl)methyl]carbamoyl}-1H-1,2,3-triazol-1-yl)butyl]-1,3,4-thiadiazole-2-carboxamide]
< 100	500 to 5000	Cc1ccc(CNC(=O)c2cn(CCCCc3nnc(C(=O)NCc4ccc(C)nc4)s3)nn2)cn1 [Example 64, N-[(6-methylpyridin-3-yl)methyl]-5-[4-(4-{[(6-methylpyridin-3-yl)methyl]carbamoyl}-1H-1,2,3-triazol-1-yl)butyl]-1,3,4-thiadiazole-2-carboxamide]
< 100	100 to 500	O=C(NCc1ccccn1)c1cn(CCCCc2nnc(C(=O)NCc3cccc(OC(F)(F)F)c3)s2)nn1 [Example 65, 5-(4-{4-[(pyridin-2-ylmethyl)carbamoyl]-1H-1,2,3-triazol-1-yl}butyl)-N-{[3-(trifluoromethoxy)phenyl]methyl}-1,3,4-thiadiazole-2-carboxamide]
< 100	< 100	Cc1ccc(CNC(=O)c2cn(CCCCn3cc(C(=O)NCc4cccc(OC(F)(F)F)c4)nn3)nn2)cn1 [Example 72, 1-[4-(4-{[(6-methylpyridin-3-yl)methyl]carbamoyl}-1H-1,2,3-triazol-1-yl)butyl]-N-{[3-(trifluoromethoxy)phenyl]methyl}-1H-1,2,3-triazole-4-carboxamide]
< 100	< 100	CC(C)(C)OC(=O)N1CC(CNC(=O)c2nnc(CCCCn3cc(C(=O)NCc4cccc(OC(F)(F)F)c4)nn3)s2)C1 [Example 73, tert-butyl 3-{[(5-{4-[4-({[3-(trifluoromethoxy)phenyl]methyl}carbamoyl)-1H-1,2,3-triazol-1-yl]butyl}-1,3,4-thiadiazol-2-yl)formamido]methyl}azetidine-1-carboxylate]
< 100	< 100	O=C(NCc1cccc(OC(F)(F)F)c1)c1cn(CCCCc2nnc(C(=O)NCc3cc(C(F)(F)F)ccn3)s2)nn1 [Example 75, 5-{4-[4-({[3-(trifluoromethoxy)phenyl]methyl}carbamoyl)-1H-1,2,3-triazol-1-yl]butyl}-N-{[4-(trifluoromethyl)pyridin-2-yl]methyl}-1,3,4-thiadiazole-2-carboxamide]
< 100	< 100	O=C(NCc1cccc(OC(F)(F)F)c1)c1cn(CCCCc2nnc(C(=O)NCc3cncc(C(F)(F)F)c3)s2)nn1 [Example 76, 5-{4-[4-({[3-(trifluoromethoxy)phenyl]methyl}carbamoyl)-1H-1,2,3-triazol-1-yl]butyl}-N-{[5-(trifluoromethyl)pyridin-3-yl]methyl}-1,3,4-thiadiazole-2-carboxamide]
< 100	< 100	O=C(NCc1cccc(OC(F)(F)F)c1)c1cn(CCCCc2nnc(C(=O)NCc3ccc(C(F)(F)F)cn3)s2)nn1 [Example 77, 5-{4-[4-({[3-(trifluoromethoxy)phenyl]methyl}carbamoyl)-1H-1,2,3-triazol-1-yl]butyl}-N-{[5-(trifluoromethyl)pyridin-2-yl]methyl}-1,3,4-thiadiazole-2-carboxamide]
< 100	< 100	O=C(NCc1cccc(OC(F)(F)F)c1)c1cn(CCCCc2nnc(C(=O)NCc3ccc(C(F)(F)F)nc3)s2)nn1 [Example 78, 5-{4-[4-({[3-(trifluoromethoxy)phenyl]methyl}carbamoyl)-1H-1,2,3-triazol-1-yl]butyl}-N-{[6-(trifluoromethyl)pyridin-3-yl]methyl}-1,3,4-thiadiazole-2-carboxamide]
< 100	< 100	CC(C)(C)OC(=O)N1CC(CNC(=O)c2cn(CCCCn3cc(C(=O)NCc4cccc(OC(F)(F)F)c4)nn3)nn2)C1 [Example 79, tert-butyl 3-{[(1-{4-[4-({[3-(trifluoromethoxy)phenyl]methyl}carbamoyl)-1H-1,2,3-triazol-1-yl]butyl}-1H-1,2,3-triazol-4-yl)formamido]methyl}azetidine-1-carboxylate]
< 100	< 100	O=C(NCc1cccc(OC(F)(F)F)c1)c1cn(CCCCn2cc(C(=O)NCc3cncc(C(F)(F)F)c3)nn2)nn1 [Example 80, N-(3-(trifluoromethoxy)benzyl)-1-(4-(4-(((5-(trifluoromethyl)pyridin-3-yl)methyl)carbamoyl)-1H-1,2,3-triazol-1-yl)butyl)-1H-1,2,3-triazole-4-carboxamide]
< 100	< 100	O=C(NCc1ccc(C(F)(F)F)nc1)c1cn(CCCCn2cc(C(=O)NCc3cccc(OC(F)(F)F)c3)nn2)nn1 [Example 82, 1-{4-[4-({[3-(trifluoromethoxy)phenyl]methyl}carbamoyl)-1H-1,2,3-triazol-1-yl]butyl}-N-{[6-(trifluoromethyl)pyridin-3-yl]methyl}-1H-1,2,3-triazole-4-carboxamide]
< 100	< 100	O=C(NCc1cccc(OC(F)(F)F)c1)c1cn(CCCCn2cc(C(=O)NCc3cc(C(F)(F)F)ccn3)nn2)nn1 [Example 83, N-{[3-(trifluoromethoxy)phenyl]methyl}-1-{4-[4-({[4-(trifluoromethyl)pyridin-2-yl]methyl}carbamoyl)-1H-1,2,3-triazol-1-yl]butyl}-1H-1,2,3-triazole-4-carboxamide]
100 to 500	100 to 500	O=C(NCc1cncc(C(F)(F)F)c1)c1cn(CCCCn2cc(C(=O)NCC3CCCC3)nn2)nn1 [Example 84]
500 to 5000	500 to 5000	O=C(NCc1cc(C(F)(F)F)ccn1)c1cn(CCCCn2cc(C(=O)NCC3CCC3)nn2)nn1 [Example 85, 1-(4-{4-[(cyclobutylmethyl)carbamoyl]-1H-1,2,3-triazol-1-yl}butyl)-N-{[4-(trifluoromethyl)pyridin-2-yl]methyl}-1H-1,2,3-triazole-4-carboxamide]
500 to 5000	> 5000	O=C(NCc1cc(C(F)(F)F)ccn1)c1cn(CCCCn2cc(C(=O)NCC3CCOC3)nn2)nn1 (centres unmarked) [Example 86]
500 to 5000	> 5000	O=C(NCc1cc(C(F)(F)F)ccn1)c1cn(CCCCn2cc(C(=O)NCC3COC3)nn2)nn1 [Example 87]

— patent US10344025B2, “GLS1 inhibitors for treating disease” (Board of Regents, The University of Texas System, priority 2014, dated 2019)
